Reference: US20260232767A1, “INTERLEUKIN-23 RECEPTOR ANTAGONIST PEPTIDES FOR USE IN THE TREATMENT OF PSORIASIS” (Janssen Pharmaceutica NV, priority 2023, published 2026)

Test system: subjects with moderate-to-severe plaque psoriasis
Assay: PASI response, Example 1 16-week dose-ranging study
Type: in vivo, human
Protocol: The Psoriasis Area and Severity Index (PASI) is a system used for assessing and grading the severity of psoriatic lesions and their response to therapy. In the PASI system, the body is divided into four regions: the head, trunk, upper extremities, and lower extremities. Each of these areas is assessed and scored separately for erythema, induration, and scaling, which are each rated on a scale of 0 to 4 and extent of involvement on a scale of 0 to 6. The PASI produces a numeric score (a “PASI score”) that can range from 0 to 72. A higher score indicates more severe disease.
This was a randomized, double-blind, placebo-controlled, dose-ranging, parallel group, multicenter, interventional study in subjects with moderate-to-severe plaque psoriasis. A target of 240 subjects were enrolled in this study with 40 subjects planned per intervention group.
Clinician-reported outcomes including Psoriasis Area and Severity Index (PASI), Body Surface Area (BSA), Investigator's Global Assessment (IGA), Nail Psoriasis Area and Severity Index (NAPSI), Fingernail Physician's Global Assessment (f-PGA), Static Physician's Global Assessment of Genitalia (s-PGA-G), Physician's Global Assessment of Hands and/or Feet (hf-PGA), and Scalp Specific Investigator Global Assessment (ss-IGA) were obtained at Week 0, 8, and 16. PASI and IGA were also obtained at Weeks 1, 2, 4, and 12, and at Week 20, four weeks after the administration of the tablets has stopped.
The primary efficacy endpoint was the proportion of participants achieving a PASI 75 response at Week 16, defined as at least a 75% reduction from baseline in PASI total score.
For the primary analysis, composite strategy (non-responder imputation) was applied to address intercurrent event #1 (Discontinuation of study intervention due to lack of efficacy or due to an AE of worsening of psoriasis) and #2 (initiation of a protocol-prohibited medication or therapy that could improve psoriasis); and treatment policy strategy (observed data) was applied to intercurrent event #3 (Discontinuation of study intervention due to other reasons). Participants with missing data after application of ICEs are also considered as non-responders.
In addition to the response analysis, pairwise comparisons of each treatment group versus the placebo group were performed for the primary endpoint of PASI 75 at Week 16. Pairwise comparisons were not adjusted for multiplicity. The Cochran-Mantel-Haenszel chi-square statistic stratified by baseline weight category (≤90 kg, >90 kg) at a 2-sided significance level of 0.05 was used (Table 2).

[1] = 100 mg BID, Week 16, trough plasma conc Q1 to <Q2
[2] = 100 mg BID, Week 16, trough plasma conc Q2 to <Q3
[3] = 100 mg BID, Week 16, trough plasma conc ≥Q3
[4] = 100 mg QD, Week 16, peak plasma conc. <Q1, N=2
[5] = 100 mg QD, Week 16, peak plasma conc. Q1 to <Q2, N=2
[6] = 100 mg QD, Week 16, peak plasma conc. Q2 to <Q3, N=2
[7] = 100 mg QD, Week 16, peak plasma conc. ≥Q3, N=2
[8] = 100 mg QD, Week 16, trough plasma conc <Q1
[9] = 100 mg QD, Week 16, trough plasma conc Q1 to <Q2
[10] = 100 mg QD, Week 16, trough plasma conc Q2 to <Q3
[11] = 100 mg QD, Week 16, trough plasma conc ≥Q3
[12] = Combined doses, Week 16, peak plasma conc. <Q1, N=10
[13] = Combined doses, Week 16, peak plasma conc. Q1 to <Q2, N=11
[14] = Combined doses, Week 16, peak plasma conc. Q2 to <Q3, N=10
[15] = Combined doses, Week 16, peak plasma conc. ≥Q3, N=11
[16] = Combined doses, Week 16, trough plasma conc <Q1
[17] = Combined doses, Week 16, trough plasma conc Q1 to <Q2

`CC(=O)NCCCC[C@@H]1NC(=O)[C@H](Cc2c[nH]c3c(C)cccc23)NC(=O)[C@H]([C@@H](C)O)NC(=O)[C@H](CC(N)=O)NC(=O)[C@@H](NC(C)=O)C(C)(C)SSC(C)(C)[C@@H](C(=O)N[C@@H](Cc2ccc(OCCN)cc2)C(=O)N[C@@H](Cc2ccc3ccccc3c2)C(=O)NC2(C(=O)N[C@@H](CCC(=O)O)C(=O)N[C@@H](CC(N)=O)C(=O)N[C@@H](Cc3cccnc3)C(=O)N(C)CC(N)=O)CCOCC2)NC1=O` [IL-23 receptor antagonist peptide, Ac-[Pen]*-N-T-[W(7-Me)]-[Lys(Ac)]-[Pen]*-Phe[4-(2-aminoethoxy)]-[2-Nal]-[THP]-E-N-[3-Pal]-Sarc-NH2 (*[Pen]-[Pen]* formdisulfidebond)] was tested, and the “PASI 100% Improvement, subjects” value [1] was 2 (40.0%), the “PASI ≥75% Improvement, subjects” value [1] was 4 (80.0%) and the “PASI ≥90% Improvement, subjects” value [1] was 3 (60.0%). The “PASI 100% Improvement, subjects” value [2] was 2 (40.0%), the “PASI ≥75% Improvement, subjects” value [2] was 5 (100.0%) and the “PASI ≥90% Improvement, subjects” value [2] was 3 (60.0%). The “PASI 100% Improvement, subjects” value [3] was 2 (40.0%), the “PASI ≥75% Improvement, subjects” value [3] was 4 (80.0%) and the “PASI ≥90% Improvement, subjects” value [3] was 4 (80.0%). For the same compound, the “Subjects achieving PASI 75” value (100 mg QD, Week 4) was 16.3%, the “PASI 75 treatment difference vs placebo” value (100 mg QD, Week 16) was 55.8% and the “PASI 90 treatment difference vs placebo” value (100 mg QD, Week 16) was 44.2% (28.6%,. For the same compound, the “PASI 100 treatment difference vs placebo” value (100 mg QD, Week 16) was 23.3% (10.7%,, the “Subjects achieving PASI 90” value (100 mg QD, Week 16) was 20 (46.5%) and the “Subjects achieving PASI 100” value (100 mg QD, Week 16) was 10 (23.3%). For the same compound, the “PASI 75, %” value (100 mg QD, Week 16, N=43) was 65.1%, the “PASI 90, %” value (100 mg QD, Week 16, N=43) was 46.5% and the “PASI 100, %” value (100 mg QD, Week 16, N=43) was 23.3%. For the same compound, the “PASI 100% Improvement, n subjects” value [4] was 0, the “PASI ≥75% Improvement, % subjects” value [4] was “(100.0%)” and the “PASI ≥75% Improvement, n subjects” value [4] was 2. For the same compound, the “PASI ≥90% Improvement, % subjects” value [4] was “(50.0%)”, the “PASI ≥90% Improvement, n subjects” value [4] was 1 and the “PASI 100% Improvement, % subjects” value [5] was “(50.0%)”. The “PASI 100% Improvement, n subjects” value [5] was 1, the “PASI ≥75% Improvement, % subjects” value [5] was “(100.0%)” and the “PASI ≥75% Improvement, n subjects” value [5] was 2. For the same compound, the “PASI ≥90% Improvement, % subjects” value [5] was “(50.0%)”, the “PASI ≥90% Improvement, n subjects” value [5] was 1 and the “PASI 100% Improvement, n subjects” value [6] was 0. For the same compound, the “PASI ≥75% Improvement, % subjects” value [6] was “(50.0%)”, the “PASI ≥75% Improvement, n subjects” value [6] was 1 and the “PASI ≥90% Improvement, % subjects” value [6] was “(50.0%)”. For the same compound, the “PASI ≥90% Improvement, n subjects” value [6] was 1, the “PASI 100% Improvement, n subjects” value [7] was 0 and the “PASI ≥75% Improvement, n subjects” value [7] was 1. For the same compound, the “PASI ≥90% Improvement, % subjects” value [7] was “(50.0%)”, the “PASI ≥90% Improvement, n subjects” value [7] was 1 and the “PASI 100% Improvement, subjects” value [8] was 2 (40.0%). The “PASI ≥75% Improvement, subjects” value [8] was 3 (60.0%), the “PASI ≥90% Improvement, subjects” value [8] was 3 (60.0%) and the “PASI 100% Improvement, subjects” value [9] was 0. For the same compound, the “PASI ≥75% Improvement, subjects” value [9] was 3 (60.0%), the “PASI ≥90% Improvement, subjects” value [9] was 3 (60.0%) and the “PASI 100% Improvement, subjects” value [10] was 1 (20.0%). The “PASI ≥75% Improvement, subjects” value [10] was 3 (60.0%), the “PASI ≥90% Improvement, subjects” value [10] was 2 (40.0%) and the “PASI 100% Improvement, subjects” value [11] was 1 (20.0%). The “PASI ≥75% Improvement, subjects” value [11] was 3 (60.0%), the “PASI ≥90% Improvement, subjects” value [11] was 2 (40.0%) and the “PASI 100% Improvement, n subjects” value [12] was 0. The “PASI ≥75% Improvement, n subjects” value [12] was 4, the “PASI ≥90% Improvement, % subjects” value [12] was “(30.0%)” and the “PASI ≥90% Improvement, n subjects” value [12] was 3. For the same compound, the “PASI 100% Improvement, % subjects” value [13] was “(18.2%)”, the “PASI 100% Improvement, n subjects” value [13] was 2 and the “PASI ≥75% Improvement, n subjects” value [13] was 10. For the same compound, the “PASI ≥90% Improvement, % subjects” value [13] was “(63.6%)”, the “PASI ≥90% Improvement, n subjects” value [13] was 7 and the “PASI 100% Improvement, % subjects” value [14] was “(10.0%)”. For the same compound, the “PASI 100% Improvement, n subjects” value [14] was 1, the “PASI ≥75% Improvement, n subjects” value [14] was 7 and the “PASI ≥90% Improvement, % subjects” value [14] was “(60.0%)”. For the same compound, the “PASI ≥90% Improvement, n subjects” value [14] was 6, the “PASI 100% Improvement, % subjects” value [15] was “(36.4%)” and the “PASI 100% Improvement, n subjects” value [15] was 4. The “PASI ≥75% Improvement, n subjects” value [15] was 8, the “PASI ≥90% Improvement, % subjects” value [15] was “(63.6%)” and the “PASI ≥90% Improvement, n subjects” value [15] was 7. For the same compound, the “PASI 100% Improvement, subjects” value [16] was 7 (26.9%), the “PASI ≥75% Improvement, subjects” value [16] was 13 (50.0%) and the “PASI ≥90% Improvement, subjects” value [16] was 11 (42.3%). For the same compound, the “PASI 100% Improvement, subjects” value [17] was 4 (15.4%), the “PASI ≥75% Improvement, subjects” value [17] was 12 (46.2%) and the “PASI ≥90% Improvement, subjects” value [17] was 7 (26.9%).
